Patent publication US20240336657A1, “G-ALPHA-S PEPTIDE INHIBITORS AND USES THEREOF” (The Regents of the University of California, priority 2021, published 2024)
Positions of bridges follow the written chain, without caps; N, C: chain ends. Non-standard residues stand in square brackets, D forms with d. Residues, ends and D or L forms follow the SMILES beside them.

Tests used:
GDP-bound Gαi1 = biological target: T1, GDP-bound Gαi1 (Homo sapiens, UniProt P63096); assay: Bio-layer interferometry (BLI) binding; conditions: highest concentration tested
T1 construct: hexahistidine (N, cleaved yes); made in house; host or cells: Escherichia coli BL21(DE3)
T1 sequence (P63096 with tags, fused parts or gaps): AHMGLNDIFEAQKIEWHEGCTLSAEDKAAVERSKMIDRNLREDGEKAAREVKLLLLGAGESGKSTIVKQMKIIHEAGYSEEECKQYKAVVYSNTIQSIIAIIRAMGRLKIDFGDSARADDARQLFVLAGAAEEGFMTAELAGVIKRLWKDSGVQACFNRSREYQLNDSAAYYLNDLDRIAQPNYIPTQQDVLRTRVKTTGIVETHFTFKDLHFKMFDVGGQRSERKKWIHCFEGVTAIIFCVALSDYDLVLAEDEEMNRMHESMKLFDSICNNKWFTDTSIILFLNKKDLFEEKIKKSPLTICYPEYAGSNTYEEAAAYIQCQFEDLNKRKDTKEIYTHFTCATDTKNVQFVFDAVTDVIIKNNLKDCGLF
Procedure: (§1) BLI experiments were performed using an OctetRED384 instrument from ForteBio. All experiments were performed at 25° C. using BLI buffer (10 mM HEPES pH 7.4, 150 mM NaCl, 1 mM MgCl2, 0.05% Tween-20, 0.1% DMSO, 0.2 mM GppNHp or GDP). Cyclic peptides were diluted to a series of concentrations in BLI buffer plus 10 μM Biotin. Assays were conducted in Greiner 384well, black, flat bottom polypropylene plates containing the protein solutions, BLI buffer plus 10 μM Biotin for dissociation, and serial dilutions of cyclic peptides to be tested.
(§2) Biotinylated proteins were immobilized on Streptavidin biosensors by dipping sensors into plate wells containing protein solutions at a concentration of 100-150 nM. Protein loading is around 2-3 nm. Sensors loaded with proteins were moved and dipped into wells with BLI buffer plus 10 μM Biotin to block unlabeled Streptavidin. Association-dissociation cycles of compounds were started by moving and dipping sensors to cyclic peptides dilutions and BLI buffer plus 10 μM Biotin wells alternatively. Association and dissociation times were carefully determined to ensure full association and dissociation.
(§3) Raw kinetic data collected were processed with the Data Analysis software provided by the manufacturer using single reference subtraction in which buffer-only reference was subtracted (For GN13 analysis). Because GD20 analogs have a low level of background binding, we used a double reference subtraction (buffer-only reference and non-protein-loading reference) method to calculate their kinetics values. The resulting data were analyzed based on a 1:1 binding model from which kon and koff values were obtained and then Kd values were calculated.

GppNHp-bound Gαi1 = biological target: T2, GppNHp-bound Gαi1 (Homo sapiens, UniProt P63096); assay: Bio-layer interferometry (BLI) binding; conditions: highest concentration tested
T2 construct: hexahistidine (N, cleaved yes); made in house; host or cells: Escherichia coli BL21(DE3)
T2 sequence (P63096 with tags, fused parts or gaps): as above
Procedure: as §1, §2, §3

Gαs S275L = Gαs S275L (Homo sapiens, UniProt P63092, S275L); assay: Adenylyl cyclase activation assay in the presence of Gβ1/γ2; assay type: biochemical; parameters: made in house; host or cells: Escherichia coli BL21(DE3) (Gαs, VC1, IIC2); Sf9 insect cells (Gβ1/Gγ2); conditions: 6.25 μM of GN13
Gαs S275L, sequence (P63092 7-380 isoform P63092-2 S261L limits assumed): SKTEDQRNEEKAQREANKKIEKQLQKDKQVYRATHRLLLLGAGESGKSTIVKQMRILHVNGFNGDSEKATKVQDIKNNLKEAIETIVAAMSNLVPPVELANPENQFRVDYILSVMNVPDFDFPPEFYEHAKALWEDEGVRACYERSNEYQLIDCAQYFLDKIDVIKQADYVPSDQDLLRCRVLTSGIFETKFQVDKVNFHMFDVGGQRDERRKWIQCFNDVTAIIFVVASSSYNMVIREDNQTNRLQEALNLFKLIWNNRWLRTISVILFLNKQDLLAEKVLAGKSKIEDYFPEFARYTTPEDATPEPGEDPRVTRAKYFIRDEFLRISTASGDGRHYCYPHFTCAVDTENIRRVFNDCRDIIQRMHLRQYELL
Procedure: GN13 inhibition of Gαs proteins at various concentrations (FIG. 18E).
WT Gαs and S275L mutant at a concentration of 8.5 mg/mL (about 190 μM) in 20 mM HEPES 8.0, 150 mM NaCl, 5 mM MgCl2, 1 mM EDTA-Na 8.0 were diluted to a series of concentrations (4 μM, 1.33 μM, 0.44 μM, 0.15 μM, 49.4 nM, 16.5 nM, 5.5 nM, 0 nM) in dilution buffer (1×PBS 7.4, 0.1% BSA, 1 mM EDTA-Na 8.0, 2 mM DTT, 0.1 mM MgCl2) plus 1 mM GppNHp. After incubation at room temperature for 1 hour to allow nucleotide exchange, 2.5 μL of each sample was then mixed with 1 μL of MgCl2 stock (20 mM MgCl2, 1× PBS 7.4, 0.1% BSA) in an OptiPlate-384, White Opaque 384-well Microplate. 2 μL of adenylyl cyclase/Gβγ stock (2 μM VC1, 2 nM IIC2, 150 μM FSK, 1× PBS 7.4, 0.1% BSA, 10 μM Gβ1/γ2(C68S)) was added, followed by addition of 2.5 μL 25 μM GN13 stock in 1× PBS 7.4, 0.1% BSA. […] The cAMP concentrations were measured by the LANCE Ultra cAMP kit. […]
A cAMP standard curve was generated in the same plate using the 50 μM cAMP standard in the kit. […] 10 μL of each diluted sample was mixed with 5 μL of 4× Eu-cAMP tracer and 5 μL of 4× ULight-anti-cAMP in a white, opaque Optiplate-384 microplate, incubated for 1 hour at room temperature, and the time-resolved fluorescence resonance energy transfer (TR-FRET) signals were read on a Spark 20M plate reader. […]

- binding to GDP-bound Gαi1 (GDP-bound Gαi1): no detectable binding
- binding to GppNHp-bound Gαi1 (GppNHp-bound Gαi1): no detectable binding
- inhibition of adenylyl cyclase activation by Gαs S275L (Gαs S275L): resistant to GN13 inhibition
Compound: CC[C@H](C)[C@@H]1NC(=O)[C@H](C)NC(=O)[C@H](Cc2ccc(O)cc2)NC(=O)[C@H](C(C)C)NC(=O)[C@H](CO)NC(=O)[C@H](CCC(=O)O)NC(=O)[C@H](Cc2ccccc2)NC(=O)[C@@H](Cc2ccc(O)cc2)NC(=O)CSC[C@@H](C(=O)NCC(N)=O)NC(=O)[C@H](CC(C)C)NC(=O)[C@H]([C@@H](C)O)NC(=O)CNC(=O)[C@H](Cc2c[nH]c3ccccc23)NC1=O [GN13] ({CH2CO}-[dY]FESVYAIWGTLCG-NH2; thioether N-13)
